Assays:
[1] = system: U251 cells; assay: Western blot of oncogenic signaling pathways; type: cell-based, human; conditions: 48 h
Protocol: (§1) Figure 4 Inhibitory effects of YLT192 on tumor cells. (A) YLT192 inhibited U251 and HCT116 cells proliferation. The EdU incorporation assay was conducted on U251 and HCT116 cells after treated with YLT192 for 24 hours. The EdU-positive (red fluorescent staining) cells and Hoechst staining (blue fluorescent staining) cells represented proliferating and total cells in the fluorescent images, respectively (100×). Quantification was shown on the right panels. (B) YLT192 induced apoptosis of HCT116 cells. HCT116 cells were treated with YLT192 or vehicle for 48 hours followed by flow cytometric analysis of annexin V-FITC and PI staining. […] Typical apoptosis-related proteins caspase 3 and Bax were detected by western blot. […] U251 and HCT116 cells were treated with YLT192 or vehicle for 48 hours and the expression of protein in different signaling pathways were detected by western blot with specific antibodies. […]
(§2) To gain further insight into the molecular mechanism of the inhibitory effects of YLT192 on tumor cells we evaluated the expression of p44/42 MAPK, STAT3, AKT, and mammalian target of rapamycin (mTOR) in U251 and HCT116 cells 48 h after treatment.
(§3) Supplementary Figure S8. […] U251 and HCT116 cells were treated with YLT192 or vehicle for 48 hours and the expression of protein in different signaling pathways were detected by western blot with specific antibodies. […]

[2] = system: HCT116 cells; assay: Western blot of oncogenic signaling pathways; type: cell-based, human; conditions: 48 h
Protocol: as §1, §2, §3

CNC(=O)c1cc(Oc2ccc(NC(=O)c3cccc(OC)c3)cc2)ccn1 [YLT192]
expression of phosphorylated p44/42 MAPK, STAT3, AKT, and mTOR [1]: dramatically decreased
expression of phosphorylated p44/42 MAPK, STAT3, AKT, and mTOR [2]: dramatically decreased

— PMC4129416, “YLT192, a Novel, Orally Active Bioavailable Inhibitor of VEGFR2 Signaling with Potent Antiangiogenic Activity and Antitumor Efficacy in Preclinical Models” (Scientific Reports, 2014)
